# Results published in paper PMC8952293, “A Histone Deacetylase (HDAC) Inhibitor with Pleiotropic In Vitro Anti-Toxoplasma and Anti-Plasmodium Activities Controls Acute and Chronic Toxoplasma Infection in Mice” (International Journal of Molecular Sciences, 2022).
# Experiments:
# [1] = tested on: P. berghei hepatic infection; assay: In vitro P. berghei hepatic infection of Huh7 cells (bioluminescence); assay type: cell-based; conditions: Plasmodium berghei, Huh-7
# Method: Huh7 cells, a human hepatic cell line employed in the assessment of drug activity against the hepatic stage of P. berghei infection, were cultured in RPMI 1640 supplemented with 10% (v/v) fetal bovine serum, 1% (v/v) penicillin/streptomycin, 1% (v/v) glutamine, 1% (v/v) nonessential amino acids, and 10 mM N-2-hydroxyethylpiperazine-N′-2-ethanesulfonic acid (HEPES) at 37 °C and 5% CO2. For infection, Huh7 cells were seeded in 96-well plates at 1 × 10^4 cells/well.
# Liver stage. The action of JF363 against the liver stage of P. berghei infection was assessed by bioluminescence, as previously described. Briefly, one day before infection, Huh7 cells were seeded in 96-well plates. JF363 stock solution was prepared in dimethyl sulfoxide (DMSO) and serially diluted in infection medium (culture medium supplemented with 50 µg/mL of gentamicin and 0.8 µg/mL of fungizone) to obtain the test concentrations (1, 10, 25, 50, […], 500 nM). […] At 46 h post-infection, the impact of the compound on cell viability was assessed by the AlamarBlue assay (Invitrogen, Carlsbad, CA, USA), following the manufacturer’s instructions. Following the manufacturer’s instructions, the drug’s effect on the parasite load was next evaluated using the Firefly Luciferase Assay Kit 2.0 (Biotium, Fremont, CA, USA). […]
# Huh7 cells = assay: Host cell viability (cell confluency, AlamarBlue) in the hepatic infection assay; assay type: cell-based, human; conditions: at the tested concentrations (up to 500 nM)
# Method: Liver stage. The action of JF363 against the liver stage of P. berghei infection was assessed by bioluminescence, as previously described. Briefly, one day before infection, Huh7 cells were seeded in 96-well plates. JF363 stock solution was prepared in dimethyl sulfoxide (DMSO) and serially diluted in infection medium (culture medium supplemented with 50 µg/mL of gentamicin and 0.8 µg/mL of fungizone) to obtain the test concentrations (1, 10, 25, 50, […], 500 nM). These were added to the cells and incubated for 1 h at 37 °C and 5% CO2, after which 1 × 10^4 sporozoites were added to the wells. Plates were centrifuged at 1800× g for 5 min and incubated at 37 °C with 5% CO2 for the assay duration. At 46 h post-infection, the impact of the compound on cell viability was assessed by the AlamarBlue assay (Invitrogen, Carlsbad, CA, USA), following the manufacturer’s instructions. Following the manufacturer’s instructions, the drug’s effect on the parasite load was next evaluated using the Firefly Luciferase Assay Kit 2.0 (Biotium, Fremont, CA, USA). For IC50 determination, nonlinear regression analysis was employed to fit the normalized results of the dose–response curves, using GraphPad Prism 8 (Prism 4 for Mac OS X, version 5.0b, San Diego, CA, USA).
# P. falciparum NF54 = assay: In vitro P. falciparum erythrocytic infection (SYBR green I flow cytometry); assay type: cell-based; conditions: Plasmodium falciparum, PfNF54 blood stage, 48 h, three independent experiments
# Method: Blood stage. Ring-stage synchronized cultures of PfNF54 at 2.5% hematocrit and at approximately 1% parasitemia were incubated with drugs or DMSO (vehicle control) in 96-well plates, for 48 h, at 37 °C in a 5% CO2 and 5% O2 atmosphere. The stock solution of JF363 was prepared in DMSO. Working solutions (1, 10, 100, 200, 500, 1000, 2000 nM) were prepared from the stock solution in a complete malaria culture medium (CMCM), which consisted of RPMI 1640 supplemented with 25 mM HEPES, 2.4 mM L-glutamine, 50 μg/mL gentamicin, 0.5% w/v AlbuMAX (Gibco BRL), 11 mM glucose, 1.47 mM hypoxanthine, and 37.3 mM NaHCO3. Five microliters of the culture (approximately 800,000 cells) was stained with the DNA-specific dye SYBR green I for each measurement. Following 20 min incubation in the dark, the stained sample was analyzed by flow cytometry. For each flow cytometry measurement, approximately 100,000 events were analyzed. All samples were analyzed in triplicate, and three different experiments were performed and analyzed using GraphPad Prism 8 (Prism 4 for Mac OS X, version 5.0b, San Diego, CA, USA).
# [2] = tested on: T. gondii type I RH strain; assay: Acute toxoplasmosis survival study in CD1 mice; assay type: in vivo, mouse; conditions: for mouse survival, by day: once a day for 7 days, untreated infected mice succumbed by day 9
# Method: To determine the in vivo anti-Toxoplasma effect of the molecule JF363 during the acute phase of infection, we analyzed the survival rate of non-inbred CD1 mice infected by the type I RH strain treated for […]. […] All untreated and infected mice succumbed by day 9 (Figure 3).
# Non-inbred CD1a mice (Janvier Labs, Le Genest-Saint-Isle, France) were intraperitoneally infected with 100 tachyzoites of RH YFP strain in […] of PBS. Six hours post-infection and then once a day for 7 days, mice were treated per os with either 40 or 160 mg/kg of JF363 prepared in corn oil/5% DMSO. Control animals were treated with the vehicle alone. Animals were monitored each day and sacrificed when the limit points were reached.
# [3] = tested on: T. gondii type II Prugniaud strain; assay: Chronic phase study: brain cyst burden in infected CBA mice; assay type: in vivo, mouse
# Method: To assess the efficacy of compound JF363 on Toxoplasma cyst formation, infected CBA mice were treated for 15 days, two months post-infection. Then, 15 days later, mice were sacrificed, and brain cysts were counted.
# Inbred CBA mice (Janvier Labs, Le Genest-Saint-Isle, France) were infected with 500 tachyzoites of Pru-DeltaKu80::HX strain. One month post-infection, effective infection was assessed by ELISA as described previously. Two months post-infection, mice were treated with 20 or 40 mg/kg of JF363 (corn oil/5% DMSO) for 15 days. Animals were sacrificed 15 days later, corresponding to 3 months post-infection, and brain cysts were counted. After removal and homogenization of mouse’s brain in 4 mL of PBS, suspensions were clarified by gentle incubation in proteinase K buffer (proteinase K 0.4 mg/mL, 10 mM Tris pH 8, ethylenediaminetetraacetic acid (EDTA) 1 mM, sodium dodecyl sulfate (SDS) 0.2%, sodium chloride 40 mM) for 15 min at 56 °C. The reaction was stopped by adding phenylmethylsulfonyl fluoride (PMSF) 2 mM and further incubation for 5 min at room temperature. The suspension was then washed with PBS and resuspended with fluorescein isothiocyanate (FITC)–Dolichos biflorus agglutinin (Vector Laboratories, CA, USA) […] for 30 min, at room temperature. At the end of the incubation, the suspension was washed with PBS and resuspended in a final volume of 1 mL of PBS distributed into six-well culture plates (1 brain per well). The number of cysts was counted by exanimation under an Axiovert 40 CFL inverted fluorescence microscope, Zeiss.
# [4] = Ex vivo biodistribution, ratios infected/control mice; assay type: in vivo; conditions: suggested from brain radioactivity of the iodinated radiotracer
# Method: Twenty-four hours after injection and immediately following SPECT/CT image acquisitions, anesthetized mice were euthanized using CO2, and tissue samples (brain, heart, stomach, liver, salivary glands, abdominal fat, small intestine, muscle, pancreas, lungs, spleen, kidneys, blood, thyroid, large intestine, genital tract) and urine were harvested. Samples were weighed, and their radioactivity was determined with a gamma counter (Wizard2, PerkinElmer, Courtaboeuf, France). Results were corrected for decay, injected dose, and organ weight and expressed as % ID/g because the bodyweight (BW) of mice was different between both groups (normal and infected).
# Standard uptake values (SUVs) were also calculated ((tissue activity/gram of tissue)/ID × BW). Due to high activity detected in the animal blood, results were also expressed as a ratio between %ID in a gram of organ and %ID in a gram of blood (org/blood ratio). Then, to assess the effect of Toxoplasma infection on the biodistribution of the iodoJF363, the ratios of radioactivity (infected/noninfected) were calculated.
smiles,measurement,setting,value
COc1cccc(CC(=O)Nc2ccc(C(=O)NO)cc2)c1 [JF363],IC50,"[1]; Pb hepatic infection, Huh7 cells, 46 h post-infection",98.9 ± 22.7 nM
same,IC50,[1]; hepatic stage of Plasmodium infection (discussion),~100 nM
same,toxicity towards the hepatic host cells (cell confluency),Huh7 cells,did not present toxicity
same,IC50,P. falciparum NF54,230 ± 15 nM
same,"mouse survival, by day",[2]; 40 mg/kg oral,11 days
same,increase of mouse survival,"[2]; 40 mg/kg oral, lethal dose of RH strain",two days
same,"mouse survival, by day",[2]; 160 mg/kg oral,14 days
same,diminution of cyst burden in the brain compared to untreated animals,[3]; 40 mg/kg,65%
same,"number of brain cysts, range","[3]; 40 mg/kg oral for 15 days, two months post-infection, nontreated 76 to 312",21–85
same,number of brain cysts (mean ± SD),"[3]; 40 mg/kg oral for 15 days, two months post-infection, nontreated 168 ± 95, p < 0.05",57 ± 29
same,blood–brain barrier permeability,[4],suggests a permeability of the blood–brain barrier
